Reference: US5677439A, “Oligonucleotide analogues containing phosphate diester linkage substitutes, compositions thereof, and precursor dinucleotide analogues” (Sanofi, priority 1995, dated 1997)
Entries after “also recorded” stand apart in the source; their conditions may differ.

Assays:
PHA stimulated human PBL = assay: Progression of PHA stimulated PBL into the S-phase of the cell cycle (flow cytometry); assay type: cell-based; details: PHA stimulation 48 hours, versus nontreated control
Experimental: Human PBL's were stimulated with PHA for 48 hours in the presence or absence of the antisense oligonucleotide sequences of Table 6. The percent of the population of cells in each treatment group in the S-phase of the cell cycle as compared to the nontreated control was determined using standard flow cytometric techniques.

[1] = tested on: c-myc protein in MOLT-4 human T-cell leukemia cells; assay: C-MYC protein expression in MOLT-4 cells (35S-methionine, radioimmunoprecipitation); assay type: cell-based; details: 60 μM, 8 hours incubation
Experimental: Asynchronous exponentially growing Molt-4 cells were incubated for 8 hours in the presence or absence of 60 μM c-myc directed antisense DNA. The cells were then incubated for 45 minutes in the presence of ^35 S-methionine and the content of c-myc protein guantitated using radioimmunoprecipitation with a c-myc antibody.

[2] = tested on: fetal calf serum-associated exonuclease; assay: Nuclease resistance: 2 h incubation in cell culture medium with 10% fetal calf serum, HPLC of parent compound; assay type: in vitro ADME; details: for % DEGRADATION MAJOR PEAK: 2 hours at 37° C., 6 or 7 μM, RPMI 1640 medium with 10% heat inactivated FCS; for % of oligomer remained after incubation: 2 hrs incubation with fetal calf serum-associated exonuclease; for AREA-MAJOR PEAK/2.0 HR: HPLC peak area of parent compound after 2.0 hr at 37° C. in RPMI 1640 with 10% FCS; for AREA-MAJOR PEAK/0.0 MIN: HPLC peak area of parent compound, 260 nm; for degradation / resistance to hydrolysis by FCS-associated exonucleases (in words): 2 hrs incubation, 10% FCS
Experimental: The oligonucleotides of Table 4 were dissolved in water. DNA concentrations were then determined by measuring the absorbance of samples at 260 nm (on a Perkin Elmer Lambda 4C Spectrophotometer at ambient room temperature) and using calculated extinction coefficients [method of Cantor and Warsaw, CRC Handbook of Biochemistry and Molecular Biology, 3rd. ed.
The FCS was heat inactivated at 56° C. for 0.5 hour prior to use. Samples were then placed on ice and deproteinized using five extractions with 24:1 chloroform:isoamyl alcohol. Samples were either stored frozen at -20° C. or immediately loaded onto a refrigerated (4° C.) WISP (Waters) HPLC autoinjector.
Oligonucleotide hydrolysis was guantitated by determining the amount of disappearance of the parent compound. Oligonucleotides (from the reaction mixture) were separated on an LKB Ultrachrome GTi dual pump chromatography system equipped with a fixed wavelength detector (260 nm), and recording integrator, using a GenPak FAX (Waters) anion exchange column eguilibrated in Buffer A (1 mM EDTA; 15 mM sodium phosphate, pH 8.5). Column temperature was maintained at 60° C. using a Waters column oven. Fifty microliter sample injection volumes were used. The oligonucleotides were eluted using a linear gradient of 0% to 100% Buffer B (Buffer A containing 0.5M NaCl) over 60 minutes. Buffer flow rate was 1 mL/min.

Substance | % CONTROL S-PHASE (PHA stimulated human PBL; 30 μM) [%] | % CONTROL S-PHASE (PHA stimulated human PBL; 60 μM) [%] | % REDUCTION C-MYC PROTEIN [1] [%] | % DEGRADATION MAJOR PEAK [2] [%] | % of oligomer remained after incubation [2] [%] | AREA-MAJOR PEAK/2.0 HR [2] | AREA-MAJOR PEAK/0.0 MIN [2] | degradation / resistance to hydrolysis by FCS-associated exonucleases (in words) [2]
5' AAC GTT GAG GGG CAT 3' [reference compound] | 75 ± 6 | 9 ± 10 | 61.0 ± 2.6 |  |  |  |  | 
5' CCT CGA CCA CCG CAT 3' (DNA CCTCGACCACCGCAT; DNA, backbone and methylation of C not given here) [Ref. Code 11, unmodified oligodeoxynucleotide made by standard solid phase phosphoramidite procedures, comparison, reference compound] |  |  |  | 75.3 | 24.7 | 0.3177 | 1.2861 | 
5' XX GGA GCT GGT GGC GTA XX (A) 3' (antisense GGAGCTGGTGGCGTA; two triethylene glycol units at each end, extra 3' A, further chemistry not given here) [Ref. Code 8, TEG-terminated anti-RAS oncogene DNA, X is TEG] |  |  |  | 17.9 | 82.1 | 0.1777 | 0.2164 | 
5' XX CCT CGA CCA CCG CAT XX (A) 3' (antisense CCTCGACCACCGCAT; two TEG at each end, 3' A, chemistry not fully specified) [Ref. Code 10, TEG-terminated anti-RAS oncogene DNA, X is TEG] |  |  |  | 0.0 |  | 0.3697 | 0.3642 | no degradation; also recorded: completely resistant to hydrolysis
5' X GGA GCT GGT GGC GTA X (A) 3' (antisense GGAGCTGGTGGCGTA; triethylene glycol unit at both ends, extra 3' A, further chemistry not given here) [Ref. Code 7, TEG-terminated anti-RAS oncogene DNA, X is TEG] |  |  |  | 0.0 |  | 0.3663 | 0.2325 | no degradation; also recorded: completely resistant to hydrolysis
5' X CCT CGA CCA CCG CAT X (A) 3' (antisense CCTCGACCACCGCAT; triethylene glycol unit at both ends, extra 3' A, further chemistry not given here) [Ref. Code 9, TEG-terminated anti-RAS oncogene DNA, X is TEG] |  |  |  | 13.0 | 87.0 | 0.3258 | 0.3744 | 
